What all share (assay): GSH conjugation of CDNB, Michaelis-Menten fit
Assay type in all cases: biochemical
Conditions in all cases: saturating GSH

One test deals with T1, TvGSTO-1S (Trametes versicolor, UniProt R7S9J3).
T1 construct: gene TRAVEDRAFT_75639; synthetic gene in pET-26b (NdeI/NotI), C-terminal His-tag, E. coli Rosetta2 (DE3) pLysS
T1 sequence (R7S9J3 1-256): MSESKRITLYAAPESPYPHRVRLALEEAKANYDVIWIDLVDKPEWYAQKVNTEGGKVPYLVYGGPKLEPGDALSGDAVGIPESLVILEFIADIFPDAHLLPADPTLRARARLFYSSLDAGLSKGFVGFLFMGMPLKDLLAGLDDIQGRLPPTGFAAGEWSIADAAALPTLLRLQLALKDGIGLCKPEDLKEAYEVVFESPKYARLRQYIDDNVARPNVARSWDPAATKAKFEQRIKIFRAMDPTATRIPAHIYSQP

In a further test the target is T2, TvGSTO-6S (Trametes versicolor, UniProt A0A384E158).
T2 construct: synthetic gene in pET-26b (NdeI/NotI), C-terminal His-tag, E. coli Rosetta2 (DE3) pLysS
T2 sequence (A0A384E158 1-246): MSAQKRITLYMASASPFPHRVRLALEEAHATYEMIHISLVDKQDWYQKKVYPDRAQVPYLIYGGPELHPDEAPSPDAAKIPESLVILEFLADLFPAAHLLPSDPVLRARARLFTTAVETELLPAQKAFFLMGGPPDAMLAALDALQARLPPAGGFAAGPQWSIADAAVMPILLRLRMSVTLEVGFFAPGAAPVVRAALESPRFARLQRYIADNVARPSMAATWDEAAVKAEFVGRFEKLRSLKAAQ

For another test, the target named is T3, TvGSTO-3S (Trametes versicolor, UniProt A0A384E145).
T3 construct: synthetic gene in pET-26b (NdeI/NotI), C-terminal His-tag, E. coli Rosetta2 (DE3) pLysS
T3 sequence (A0A384E145 1-240): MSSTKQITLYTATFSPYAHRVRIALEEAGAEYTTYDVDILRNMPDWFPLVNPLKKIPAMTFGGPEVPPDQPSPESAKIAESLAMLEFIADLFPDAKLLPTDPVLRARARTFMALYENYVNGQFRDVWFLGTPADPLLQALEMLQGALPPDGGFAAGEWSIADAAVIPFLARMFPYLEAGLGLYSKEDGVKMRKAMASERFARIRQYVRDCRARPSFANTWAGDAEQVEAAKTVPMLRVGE

For `O=[N+]([O-])c1ccc(Cl)c([N+](=O)[O-])c1` [CDNB, 1-chloro-2,4-dinitrobenzene], the Km result on TvGSTO-1S, on TvGSTO-6S and on TvGSTO-3S was “All proteins exhibit an activity against CDNB” in each case.

These data come from PMC4591263, “The GSTome Reflects the Chemical Environment of White-Rot Fungi” (PLoS ONE, 2015).
